According to US20150197492A1, “NOVEL INDENO[1,2-c]QUINOLIN-11-ONE DERIVATIVES, PREPARATION METHOD AND APPLICATION THEREOF” (National Defense Medical Center, priority 2014, published 2015):

Columns and labels:
Assay type in all cases: cell-based
SW-620 = assay: cells; conditions: SW-620 (Colon Cancer), 10 μM, 48 hours
SF-539 = assay: cells; conditions: SF-539 (CNS Cancer), 10 μM, 48 hours
HT29 = assay: cells; conditions: HT29 (Colon Cancer), 10 μM, 48 hours
T-47D = assay: cells; conditions: T-47D (Breast Cancer), 10 μM, 48 hours
NCI-H226 = assay: cells; conditions: NCI-H226 (Non-Small Cell Lung Cancer), 10 μM, 48 hours
HS 578T = assay: cells; conditions: HS 578T (Breast Cancer), 10 μM, 48 hours
A498 = assay: cells; conditions: A498 (Renal Cancer), 10 μM, 48 hours
DU-145 = assay: cells; conditions: DU-145 (Prostate Cancer), 10 μM, 48 hours
HCT-116 = assay: cells; conditions: HCT-116 (Colon Cancer), 10 μM, 48 hours
SF-295 = assay: cells; conditions: SF-295 (CNS Cancer), 10 μM, 48 hours
K-562 = assay: cells; conditions: K-562 (Leukemia), 10 μM, 48 hours
SK-MEL-28 = assay: cells; conditions: SK-MEL-28 (Melanoma), 10 μM, 48 hours
KM12 = assay: cells; conditions: KM12 (Colon Cancer), 10 μM, 48 hours
[1] = test system: 55 to 60 cancer cell lines; conditions: 10 μM, 48 hours, all tested cell lines
NCI-H460 = assay: cells; conditions: NCI-H460 (Non-Small Cell Lung Cancer), 10 μM, 48 hours
U251 = assay: cells; conditions: U251 (CNS Cancer), 10 μM, 48 hours
COLO 205 = assay: cells; conditions: COLO 205 (Colon Cancer), 10 μM, 48 hours
NCI-H23 = assay: cells; conditions: NCI-H23 (Non-Small Cell Lung Cancer), 10 μM, 48 hours
IGROV1 = assay: cells; conditions: IGROV1 (Ovarian Cancer), 10 μM, 48 hours
SK-MEL-5 = assay: cells; conditions: SK-MEL-5 (Melanoma), 10 μM, 48 hours
HOP-62 = assay: cells; conditions: HOP-62 (Non-Small Cell Lung Cancer), 10 μM, 48 hours
BT-549 = assay: cells; conditions: BT-549 (Breast Cancer), 10 μM, 48 hours
HL-60 (TB) = assay: cells; conditions: HL-60 (TB) (Leukemia), 10 μM, 48 hours
NCI/ADR-RES = assay: cells; conditions: NCI/ADR-RES (Ovarian Cancer), 10 μM, 48 hours
SR = assay: cells; conditions: SR (Leukemia), 10 μM, 48 hours
human PC-3 cells = assay: Sulforhodamine B (SRB) assay, cytotoxicity against PC-3 cells; conditions: SRB assay, PC-3 cells
Summary of the method: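 PC-3 cells in 5% FBS were fixed with 10% TCA after 24 h as T0, then treated with compound for 48 h, fixed, stained with 0.4% SRB in 1% acetic acid and solubilized in 10 mmol/L Trizma base. Absorbance was read at 515 nm. GI% = 100−[(Tx−T0)/(C−T0)]×100, and IC50 is the concentration halving total protein.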

SN12C = assay: cells; conditions: SN12C (Renal Cancer), 10 μM, 48 hours
RXF 393 = assay: cells; conditions: RXF 393 (Renal Cancer), 10 μM, 48 hours
786-0 = assay: cells; conditions: 786-0 (Renal Cancer), 10 μM, 48 hours
CCRF-CEM = assay: cells; conditions: CCRF-CEM (Leukemia), 10 μM, 48 hours

Structure (SMILES)	growth percentage (SW-620) [%]	growth percentage (SF-539) [%]	growth percentage (HT29) [%]	growth percentage (T-47D) [%]	growth percentage (NCI-H226) [%]	growth percentage (HS 578T) [%]	growth percentage (A498) [%]	growth percentage (DU-145) [%]	growth percentage (HCT-116) [%]	growth percentage (SF-295) [%]	growth percentage (K-562) [%]	growth percentage (SK-MEL-28) [%]	growth percentage (KM12) [%]	Mean (mean growth percentage of the tested cancer cell lines) [1] [%]	growth percentage (NCI-H460) [%]	growth percentage (U251) [%]	growth percentage (COLO 205) [%]	growth percentage (NCI-H23) [%]	growth percentage (IGROV1) [%]	growth percentage (SK-MEL-5) [%]	other results
O=C1c2cc(Cl)ccc2-c2c(N3CCOCC3)nc3ccccc3c21 [SJ-8, 9-Chloro-6-morpholino-11H-indeno[1,2-c]quinolin-11-one]	103.71	96.24	91.34	88.81	87.21	88.93	93.88	119.02	93.64	102.43	89.01	113.81	109.99	93.66	102.14	95.72	100.71	90.40	86.47	99.19	growth percentage (HOP-62): 78.71%; growth percentage (BT-549): 93.95%; growth percentage (HL-60 (TB)): 97.09%; growth percentage (NCI/ADR-RES): 94.32%; growth percentage (SR): 85.94%; IC50 (human PC-3 cells; Homo sapiens, 48 hours, read-out: IC50): > 10 µM; growth percentage (SN12C): 96.95%; growth percentage (RXF 393): 114.61%; growth percentage (786-0): 103.71%; growth percentage (CCRF-CEM): 88.85%
O=C1c2cc(Cl)ccc2-c2c(N3CCSCC3)nc3ccccc3c21 [SJ-9, 9-Chloro-6-thiomorpholino-11H-indeno[1,2-c]quinolin-11-one]	91.88	92.93	95.52	83.86	94.22	87.68	99.15	106.04	89.08	93.33	100.89	110.84	97.97	94.75	93.32	111.96	96.30	94.33	72.45	89.52	growth percentage (HOP-62): 78.17%; growth percentage (BT-549): 92.91%; growth percentage (HL-60 (TB)): 94.50%; growth percentage (NCI/ADR-RES): 102.85%; growth percentage (SR): 99.53%; Toxicity (%) (human PC-3 cells): 33.3%; GI % (10 μM) (human PC-3 cells; 10 μM): 100%; growth percentage (SN12C): 93.10%; growth percentage (RXF 393): 106.09%; growth percentage (786-0): 99.53%; growth percentage (CCRF-CEM): 105.04%
